The text below walks through data of ChEMBL document CHEMBL3045924, “Synthesis, molecular docking, and cardioprotective activity of 2-methylthio-1,4-dihydropyrimidines” (2012).

Common to all, as to type: functional
Experiment [1] relates to Rattus norvegicus. As to the kind of experiment: Cardioprotective activity in adrenaline-induced MI Rattus norvegicus Sprague-Dawley (rat) model assessed as decrease in ST interval at 5 mg/kg, po for 15 days challenged with adrenaline on day 14 and day 15 measured after 24 hr post second adrenaline injection by ECG analysis (reference value: 0.0829 +/- 0.0024 sec).
Experiment [2] deals with Rattus norvegicus. In words: Cardioprotective activity in adrenaline-induced MI Rattus norvegicus Sprague-Dawley (rat) model assessed as decrease in QT interval prolongation at 5 mg/kg, po for 15 days challenged with adrenaline on day 14 and day 15 measured after 24 hr post second adrenaline injection by ECG analysis (reference value: 0.08205 +/- 0.0023 sec).
For experiment [3], the system named is Rattus norvegicus. In words: Cardioprotective activity in adrenaline-induced MI Rattus norvegicus Sprague-Dawley (rat) model assessed as decrease in heart rate at 5 mg/kg, po for 15 days challenged with adrenaline on day 14 and day 15 measured after 24 hr post second adrenaline injection (reference value: 422.76 +/- 6.158 bpm).
In experiment [4] the test system is Rattus norvegicus. In words: Cardioprotective activity in adrenaline-induced MI Rattus norvegicus Sprague-Dawley (rat) model assessed as effect on P-duration at 5 mg/kg, po for 15 days challenged with adrenaline on day 14 and day 15 measured after 24 hr post second adrenaline injection by ECG analysis (reference value: 0.01136 +/- 0.0044 sec).
Experiment [5] concerns Rattus norvegicus. As to the kind of experiment: Cardioprotective activity in adrenaline-induced MI Rattus norvegicus Sprague-Dawley (rat) model assessed as increase in R-R interval at 5 mg/kg, po for 15 days challenged with adrenaline on day 14 and day 15 measured after 24 hr post second adrenaline injection by ECG analysis (reference value: 0.135 +/- 0.0176 sec).

Regarding `CCOC(=O)C1=C(C)NC(SC)=NC1c1ccc([N+](=O)[O-])cc1` (stereo not given), the Time in experiment [1] is 0.05879 s; in experiment [2], 0.06664 s; in experiment [4], 0.0166 s; in experiment [5] it was 0.1852 s. The Activity in experiment [3] is listed as 315.766 bpm.

For the molecule `COC(=O)C1=C(C)NC(SC)=NC1c1ccc(Cl)cc1` (stereo not given), the Time in experiment [1] is recorded as 0.0545 s; in experiment [2] it was 0.03879 s; in experiment [4], 0.01358 s; in experiment [5] it was 0.1533 s. The Activity in experiment [3] was 382.03 bpm.

As for `COC(=O)C1=C(C)NC(C)=C(C(=O)OC)C1c1ccccc1[N+](=O)[O-]` [NIFEDIPINE], the Time in experiment [1] amounted to 0.0455 s; in experiment [2], 0.06101 s; in experiment [4] it was 0.01815 s; in experiment [5] it was 0.2146 s. Further, the Activity in experiment [3] is 278.5 bpm.
